In patent US7067491B2, “Heterocyclic compounds having elastase-inhibiting activity and intermediates thereof” (Dainippon Pharmaceutical Co., Ltd., priority 2002, dated 2006) one finds IC50 and ED50 data, which are given here for 2 compounds.

In test [1] the target is T1, porcine pancreas elastase (Sus scrofa, UniProt P00772).
T1 construct: purchased Elastin Products Co., Inc
The test can be described thus: Inhibitory activity against porcine pancreas elastase. Particulars: porcine pancreas elastase 40 ng/ml, substrate Suc-Ala-Ala-Ala-pNA 2.5 mM. It counts as biochemical. As to the method:
Experiment 2: Inhibitory Activity Against Porcine Pancreas Elastase
The inhibitory activity was measured in the same manner as experiment 1, except for using porcine pancreas elastase (Elastin Products Co., Inc., final concentration 40 ng/ml) as a target enzyme and Suc-Ala-Ala-Ala-pNA (succinyl-alanyl-alanyl-alanyl-p-nitroanilide, Peptide Research, final concentration 2.5 mM) as a substrate.

Test [2] deals with T2, human neutrophil elastase (Homo sapiens, UniProt P08246).
T2 construct: purchased Elastine Product Co., Inc
T2 sequence (P08246 30-267): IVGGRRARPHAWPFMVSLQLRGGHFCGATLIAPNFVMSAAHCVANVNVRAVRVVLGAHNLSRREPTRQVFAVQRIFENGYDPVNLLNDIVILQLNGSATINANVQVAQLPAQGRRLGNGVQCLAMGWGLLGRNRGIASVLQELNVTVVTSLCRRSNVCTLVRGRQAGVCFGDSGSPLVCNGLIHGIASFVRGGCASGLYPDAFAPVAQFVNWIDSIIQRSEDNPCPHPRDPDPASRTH
In words: Inhibitory activity on human neutrophil elastase (HNE) in vitro. It counts as biochemical. Particulars: human neutrophil elastase 0.2 U/ml, substrate MeO-Suc-Ala-Ala-Pro-Val-pNA 0.5 mM, 37° C., pH 7.5. As to the method: Experiment 1: Inhibitory Activity on Human Neutrophil Elastase (HNE)
The inhibitory activity of the compound of the present invention in vitro on human neutrophil elastase was examined by this experiment.
To 100 mM of HEPES {[N-(2-hydroxyethyl)piperazine-N′-(2-ethanesulfonic acid)], pH 7.5}buffer solution containing 1M NaCl and 0.001% Brij-35 (polyoxyethylene lauryl ether) were added human neutrophil elastase (final concentration: 0.2 U/ml, Elastine Product Co., Inc.) and the compound of the present invention (dissolved in 10% dimethyl sulfoxide; final concentration: 10^−10˜3×10^−3 M). The mixture was pre-incubated for 3 minutes at 37° C. Thereto was added MeO-Suc-Ala-Ala-Pro-Val-pNA (methoxysuccinyl-alanyl-alanyl-prolyl-valyl-p-nitroanilide (Sigma Chemical Co.)) as a substrate to give the final concentration of 0.5 mM, and the reaction was initiated. Under this condition, the producing rate of the reaction product, p-nitroanilide (pNA) at 37° C. was estimated by measuring the absorbance at 404 nm for 3 minutes.
The inhibitory activity of the compound of the present invention against human neutrophil elastase (HNE) is calculated according to the following formula.
The concentration of the compound of the present invention to be required to achieve 50% HNE inhibition (i.e., IC50) was calculated based on the concentration-inhibitory rate curve of the compound of the present invention.
As a comparative compound, N-[(1S)-2-((2S)-2-{N-[(1S)-3,3,3-trifluoro-1-(methylethyl)-2-oxopropyl]carbamoyl}pyrrolidinyl)-1-(methylethyl)-2-oxoethyl](imidazol-4-yl)carboxamide was used, and the same assay was carried out. The planar structure of this compound was the same as one of compound (22) disclosed in J. Med. Chem., 1997, 40, 1876–1885.

The test system of test [3] is pulmonary hemorrhage induced by human neutrophil elastase (HNE). In words: Inhibitory activity on pulmonary hemorrhage induced by human neutrophil elastase (HNE). Format: in vivo. To be noted: Homo sapiens, Neutrophil, po; hamster, orally administered 30 minutes prior to intratracheal HNE; hemoglobin in bronchoalveolar lavage fluid after 1 hour. An excerpt:
Experiment 3: Inhibitory Activity on Pulmonary Hemorrhage Induced by Human Neutrophil Elastase (HNE)
This experiment tested on in vivo efficacy of the compound of the present invention. When human neutrophil elastase is intratracheally administered to a hamster, the pulmonary hemorrhage is induced. A definite time later after administration of the elastase, in the bronchoalveolar lavage fluid by washing lung via trachea, hemoglobin is detected.
Hamsters (Syrian strain, 7–10 weeks old male) were divided into groups consisting of 3 to 6, and each group was treated as follows:
(A) A Group to which the Compound of the Present Invention was not Administered (Disease Control):
Physiological saline solution (0.2 ml) in which 25 unit of human neutrophil elastase (Elastin Product Co., Inc.) was dissolved was intratracheally administered to a hamster to induce the pulmonary hemorrhage. One hour later after administration of elastase, the hamsters were sacrificed by exsanquination, and alveoli were transtracheally washed twice with physiological saline (2.5 ml), and the hemoglobin concentration in the bronchoalveolar lavage fluid (5 ml) was determined by measuring the absorbance at 414 nm.
(B) A Group to which the Compound of the Present Invention was Administered:
A fixed amount of the compound of the present invention was dissolved in dimethyl sulfoxide (DMSO), and thereto was added 0.5% tragacanth gum to prepare a suspension. The suspension was orally administered to a hamster, 30 minutes prior to the administration of human neutrophil elastase (HNE) (final concentration of DMSO, 1%), and then, human neutrophil elastase was administered in the same manner as the above method (A). After 1 hour, the concentration of hemoglobin in the bronchoalveolar lavage fluid was determined in the same manner as the above method (A).
The hemorrhage inhibition activity of the compound of the present invention is represented as the hemorrhage inhibiting rate in the following formula.
The dose of the compound of the present invention to be required to achieve 50% inhibition of pulmonary hemorrhage (i.e., ED50) was calculated based on the administration dose-hemorrhage inhibiting rate curve.
As a comparative example, the same experiment was also carried out on a comparative compound used in Experiment 1.
Some of the compounds of the present invention were compared with the comparative compound on the hemorrhage inhibitory rate at the dose of 3 mg/kg.

T1 sequence (P00772 27-266): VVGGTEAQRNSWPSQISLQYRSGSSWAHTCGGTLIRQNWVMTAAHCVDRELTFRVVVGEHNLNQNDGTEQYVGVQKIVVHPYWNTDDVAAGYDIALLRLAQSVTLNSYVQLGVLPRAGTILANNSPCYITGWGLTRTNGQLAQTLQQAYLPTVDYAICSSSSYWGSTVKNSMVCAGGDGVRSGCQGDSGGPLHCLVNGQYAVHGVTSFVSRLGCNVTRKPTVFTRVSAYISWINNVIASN

Consider `Cc1noc(C)c1C(=O)N[C@H](C(=O)N1CCC[C@H]1C(=O)N[C@H](C(=O)C(F)(F)F)C(C)C)C(C)C` [Example 1, N-[(1S)-2-((2S)-2-{N-[(1S)-3,3,3-trifluoro-1-(methylethyl)-2-oxopropyl]carbamoyl}pyrrolidinyl)-1-(methylethyl)-2-oxoethyl](3,5-dimethylisoxazol-4-yl)carboxamide], for which the 50% inhibitory concentration (IC50) in test [1] amounted to 154 nM; in test [2], 17 nM. This compound registered an ED50 in test [3] of 2.6 mg/kg.
Consider `CC(C)[C@H](NC(=O)c1noc2ccccc12)C(=O)N1CCC[C@H]1C(=O)N[C@H](C(=O)C(F)(F)F)C(C)C` [Example 2, N-[(1S)-2-((2S)-2-{N-[(1S)-3,3,3-trifluoro-1-(methylethyl)-2-oxopropyl]carbamoyl}pyrrolidinyl)-1-(methylethyl)-2-oxoethyl](benzo [d]isoxazol-3-yl)carboxamide], for which the IC50 in test [1] stood at 215 nM; in test [2], 8.1 nM. Further, the 50% effect level in test [3] (ED50) was put at a dose of 0.86 mg/kg.

A word on the IC50: it is the concentration at which inhibition is half-maximal. A lower IC50 goes with greater potency. What is called ED50 is the dose that gives a 50% effect, or the effect in half of the subjects. Read a low ED50 as greater potency.
